{"source": "patent US20050287587A1", "about": "“Production of glycosylated macrolides in E. coli” (The Board of Trustees of the Leland Stanford Junior …, priority 2002, published 2005)", "origin": "cited, not measured here", "conditions": "general background statement, no strain or method given"}
{"smiles": "CC[C@H]1OC(=O)[C@H](C)[C@@H](O)[C@H](C)[C@@H](O)[C@@H](C)C[C@@H](C)C(=O)[C@H](C)[C@@H](O)[C@H]1C", "note": "[6-deoxyerythronolide B]", "values": [{"measurement": "antibacterial activity", "result": "no antibacterial activity"}]}
